According to patent US8088932B2, “Pentaaryldiamine-containing bismaleimide compound and method of producing the compound” (Industrial Technology Research Institute, priority 2008, dated 2012):

Assay: physchem
Settings: organic solvent or mixture, thermodynamic from solid

solubility (Solubility in CHCl3): > 1000 µg/mL
solubility (Solubility in DMAc): > 1000 µg/mL
solubility (Solubility in DMF): > 1000 µg/mL
solubility (Solubility in DMSO): > 1000 µg/mL
solubility (Solubility in MeOH): < 1000 µg/mL
solubility (Solubility in NMP): > 1000 µg/mL
solubility (Solubility in THF): > 1000 µg/mL
solubility (Solubility in m-Cresol): > 1000 µg/mL
Structure (SMILES): N#Cc1ccc(N(c2ccc(C#N)cc2)c2ccc(N(c3ccc(N4C(=O)C=CC4=O)cc3)c3ccc(N4C(=O)C=CC4=O)cc3)cc2)cc1 [Compound 6, N,N-bis(4-maleimidophenyl)-N′,N′-bis(4-cyanophenyl)-1,4-phenylenediamine]
